Measured values reported in US11247998B2, “Piperazine heteroaryl derivative, preparation method therefor and use of same in medicine” (priority 2017, dated 2022).

Experiments:
[1] = tested on: HBV DNA replication in HepG2.2.15 cells; assay: In vitro anti-HBV activity test (quantitative assay of intracellular HBV DNA), HepG2.2.15 cells, quantitative PCR; format: cell-based, hepatitis B virus (HBV); settings: Hepatitis B virus, HBV DNA by quantitative PCR; for EC50: compound treatment Day 2 to Day 8; for Emax: read-out: Emax (effect value of the compound to maximally inhibit HBV DNA replication)
Description: In vitro anti-HBV activity test of the compound of the present invention (quantitative assay of intracellular HBV DNA)
HepG2.2.15 cell is a stable expression cell line that has integrated HBV genome.
Virus particles containing HBV DNA can be synthesized by replication, transcription and encapsidation in the cells, and then secreted. In this study, the quantitative analysis of HBV DNA produced by HepG2.2.15 in vitro proliferation was carried out by quantitative PCR method, thereby determining the activity of the compound of the present invention on inhibiting the HBV DNA replication by inhibiting the assembly of HBV capsid protein.
HepG2.2.15 cells were cultured in DMEM/high glucose medium (10% FBS, […] G418) and passaged every three days. On the day of the experiment, a cell suspension was prepared with fresh cell culture medium, and incubated in a 96-well plate (Corning, #3599) at 40,000 cells/well, at 5% carbon dioxide, 37° C. On Day 2, the compound was dissolved in pure DMSO at a concentration of 20 mM, and then the first concentration of 2 mM was formulated with DMSO, and diluted in 4-fold concentration gradient to 8 concentrations. A control well was added with 90 μl of DMSO. The compound solution was diluted 200-fold with DMEM/high glucose medium. The cell culture plate inoculated on Day 1 was taken out. The medium in the wells was removed by a negative pressure suction device, and the formulated medium containing the compound at each concentration was added respectively to each well at 200 μl/well. The plate was incubated at 37° C. for 72 hours. On Day 5, the medium of the cultured cells was replaced with fresh medium containing the same compound in the same way as Day 2, and then the plate was incubated at 37° C. for 72 hours. On Day 8, the cell culture plate was taken out, centrifuged at 300 g for 3 minutes, and the culture supernatant was collected at 200 μl/well. HBV DNA was extracted from the cell culture supernatant with Qiagen automatic DNA extraction device, and the specific method referred to the instructions of the reagents and instruments. Finally, the extracted DNA was eluted with DNA elution buffer at 100 μl/well. The extracted DNA was subjected to quantitative PCR analysis of HBV DNA using Hepatitis B virus nucleic acid quantitative detection kit (Triplex International Biosciences Co., Ltd.), and the specific method referred to the instruction of the kit. The quantitative standard curve was obtained with the standard sample provided in the kit, and the experiments were performed in parallel. Quantitative conversion of each sample was carried out according to the standard curve. Finally, the EC50 value of the compound was calculated with Graphpad Prism software according to each concentration of the compound and the corresponding DNA value.
The in vitro activity of the compound of the present invention on inhibiting the HBV DNA replication by inhibiting the assembly of HBV capsid protein was determined by the above experiment.

[2] = Effect on in vitro proliferation of HepG2 cells (CellTiter-Glo); format: cell-based; settings: human; HepG2 cells, 72 hours, CellTiter-Glo
Description: Test Example 2. Effect of the Compound of the Present Invention on In Vitro Proliferation of HepG2 Cells
HepG2 cells in logarithmic growth phase were taken and digested with trypsin to prepare a cell suspension, which was incubated in a 96-well plate (transparent bottom white 96-well plate, PerkinElmer) at 6,000 cells/well, at 5% carbon dioxide, 37° C. for 16-20 hours. On Day 2, the compound was dissolved in pure DMSO at a concentration of 20 mM. The compound was diluted in 3-fold concentration gradient using an automatic pipetting station (Bravo), 8 concentration points for each compound, and the control well was DMSO. The compound formulated in DMSO at each concentration point was diluted 200-fold with EMEM (containing 10% FBS) medium. The cell culture plate inoculated on Day 1 was taken out. The medium in the wells was removed by a negative pressure suction device, and the formulated medium containing the compound at each concentration was added respectively to each well at 100 μl/well. The plate was incubated at 37° C. for 72 hours. On Day 5, the 96-well cell culture plate was taken out, and freshly formulated CellTiter Glo was added to each well at 100 μl/well. The 96-well plate was left to stand for 5-10 minutes, the bottom was then sealed with a white bottom sealing film (PerkinElmer). The plate was placed in the microplate reader to measure the luminescence signal. The CC50 value of the compound was calculated with Graphpad Prism software according to each concentration of the compound and the corresponding proliferation inhibition signal value.
The inhibition effect of the compound of the present invention on in vitro proliferation of HepG2 cells was determined by the above experiment.

[3] = Pharmacokinetics assay in rats after intragastrical administration (LC/MS/MS of plasma); format: in vivo; settings: both sexes, rat, plasma, po, SD rats, 2 mg/kg; for Vd/F: read-out: Apparent distribution volume Vz/F; for AUC: read-out: Area under curve AUC; for bioavailability: read-out: Bioavailability (%) F %; for CL/F: read-out: Clearance CLz/F; for half-life: read-out: Half-life T1/2 (converted); for Cmax: read-out: Plasma concentration Cmax; for MRT: read-out: Residence time MRT
Description: Pharmacokinetics assay of the compound of the present invention
Rats were used as test animals. The drug concentration in plasma at different time points was determined by LC/MS/MS method after intragastrical administration of the compound of Example 1, the compound of Example 2, the compound of Example 4, the compound of Example 6, the compound of Example 7, the compound of Example 11, the compound of Example 39, the compound of Example 42, the compound of Example 44, the compound of Example 45 and the compound of Example 47 to rats. The pharmacokinetic behavior and property of the compound of the present invention were studied and evaluated in rats.
44 Healthy adult SD rats (half male and half female, 4 rats/group) were purchased from Shanghai Jiesijie Laboratory Animal Co., LTD, with Certificate No.: SCXK (Shanghai) 2013-0006.
A certain amount of the test compound was weighed, and added with 5% by volume of DMSO, 5% by volume of tween 80 and 90% by volume of normal saline to prepare a 0.2 mg/mL colorless, clear and transparent solution.
After an overnight fast, SD rats were administrated intragastrically with the test compound at an administration dose of 2.0 mg/kg and an administration volume of 10.0 mL/kg.
The rats were intragastrically administrated the compound of Example 1, the compound of Example 2, the compound of Example 4, the compound of Example 6, the compound of Example 7, the compound of Example 11, the compound of Example 39, the compound of Example 42, the compound of Example 44, the compound of Example 45 and the compound of Example 47. 0.1 ml of blood was taken from the orbit before administration and at 0.5, 1.0, 2.0, 4.0, 6.0, 8.0, 11.0 and 24.0 hours after administration. The samples were stored in heparinized tubes, and centrifuged for 10 minutes at 3500 rpm to separate the blood plasma. The plasma samples were stored at −20° C. The rats were fed two hours after administration.
The content of the test compound in the plasma of rats after intragastrical administration of the test compound at different concentrations was determined: 25 μL of rat plasma at each time after administration was taken, added with 40 μL of the internal standard solution of camptothecin (100 ng/mL) and 200 μL of acetonitrile, vortex-mixed for 5 minutes, and centrifuged for 10 minutes (4000 rpm). 0.2 μL of the supernatant was taken from the plasma samples for LC/MS/MS analysis.

| Structure (SMILES) | EC50 [1] | Emax [1] | CC50 at 72 h [2] | Vd/F [3] | AUC [3] | bioavailability [3] | CL/F [3] | half-life [3] | Cmax [3] | MRT [3] |
| --- | --- | --- | --- | --- | --- | --- | --- | --- | --- | --- |
| C[C@@H](NC(=O)c1cnn2c1CN(C(=O)Nc1ccc(F)c(F)c1)CC2)C(F)(F)F [Example 2, (R)—N^5-(3,4-Difluorophenyl)-N^3-(1,1,1-trifluoropropan-2-yl)-6,7-dihydropyrazolo[1,5-α]pyrazine-3,5(4H)-dicarboxamide] | 30 nM | 100% | > 100000 nM | 2.58 ± 0.638 L/kg | 9250 ± 3310 ng·h/mL | 107% | 4 ± 1.48 mL/min/kg | 8.01 ± 2.26 h | 661 ± 200 ng/mL | 11.5 ± 2.8 h |
| C[C@@H](NC(=O)c1cnn2c1CN(C(=O)Nc1cc(F)c(F)c(F)c1)CC2)C(F)(F)F [Example 4, (R)—N^5-(3,4,5-Trifluorophenyl)-N^3-(1,1,1-trifluoropropan-2-yl)-6,7-dihydropyrazolo[1,5-α]pyrazine-3,5(4H)-dicarboxamide] | 27 nM | 100% | > 100000 nM | 3.69 ± 0.532 L/kg | 7130 ± 2640 ng·h/mL | 120% | 5.08 ± 1.48 mL/min/kg | 8.8 ± 1.95 h | 425 ± 100 ng/mL | 13.1 ± 2.5 h |
| C[C@H]1Cn2cnc(C(=O)N[C@H](C)C(F)(F)F)c2CN1C(=O)Nc1ccc(F)c(F)c1 [Example 6, (S)—N^7-(3,4-Difluorophenyl)-6-methyl-N^1-((R)-1,1,1-trifluoropropan-2-yl)-5,6-dihydroimidazo[1,5-α]pyrazine-1,7(8H)-dicarboxamide] | 4 nM | 100% | > 100000 nM | 2.16 ± 0.721 L/kg | 12900 ± 6600 ng·h/mL | 120% | 3.22 ± 1.66 mL/min/kg | 10.8 ± 8.1 h | 629 ± 167 ng/mL | 16.7 ± 10.1 h |
| C[C@H]1Cn2ncc(C(=O)N[C@H](C)C(F)(F)F)c2CN1C(=O)Nc1ccc(F)c(F)c1 [Example 7, (S)—N^5-(3,4-Difluorophenyl)-6-methyl-N^3-((R)-1,1,1-trifluoropropan-2-yl)-6,7-dihydropyrazolo[1,5-α]pyrazine-3,5(4H)-dicarboxamide] | 38 nM | 100% | > 100000 nM | 1.65 ± 0.174 L/kg | 16500 ± 9260 ng·h/mL | 98% | 2.63 ± 1.46 mL/min/kg | 9.72 ± 5.94 h | 1080 ± 151 ng/mL | 14.1 ± 8 h |
| C[C@H]1Cn2cnc(C(=O)N[C@H](C)C(F)(F)F)c2CN1C(=O)Nc1ccc(F)c(C#N)c1 [Example 11, (S)—N^7-(3-Cyano-4-fluorophenyl)-6-methyl-N^1-((R)-1,1,1-trifluoropropan-2-yl)-5,6-dihydroimidazo[1,5-α]pyrazine-1,7-(8H)-dicarboxamide] | 18 nM | 100% | > 100000 nM | 2.89 ± 0.389 L/kg | 10900 ± 4520 ng·h/mL | 111% | 3.53 ± 1.5 mL/min/kg | 11.2 ± 5.63 h | 597 ± 64 ng/mL | 16.3 ± 7.6 h |
| C[C@@H]1CN(C(=O)Nc2ccc(F)c(F)c2)Cc2c(C(=O)N[C@H](C)C(F)(F)F)nnn21 [Example 42, (R)—N^5-(3,4-Difluorophenyl)-7-methyl-N^3-((R)-1,1,1-trifluoropropan-2-yl)-6,7-dihydro-[1,2,3]triazolo[1,5-α]pyrazine-3,5(4)-dicarboxamide] | 75 nM | 100% | > 100000 nM | 5.96 ± 1.22 L/kg | 7380 ± 3180 ng·h/mL | 87% | 5.3 ± 2.47 mL/min/kg | 15.9 ± 8.9 h | 433 ± 102 ng/mL | 22.1 ± 12.4 h |
| C[C@H]1Cn2cnc(C(=O)NC3(C)CCC3)c2CN1C(=O)Nc1ccc(F)c(C#N)c1 [Example 46, (S)—N^7-(3-Cyano-4-fluorophenyl)-6-methyl-N^1-(1-methylcyclobutyl)-5,6-dihydroimidazo[1,5-α]pyrazine-1,7(8H)-dicarboxamide] | 65 nM | 97% | > 100000 nM | – | – | – | – | – | – | – |
| C[C@H]1Cn2cnc(C(=O)NC3(C)CC3)c2CN1C(=O)Nc1ccc(F)c(C#N)c1 [Example 48, (S)—N^7-(3-Cyano-4-fluorophenyl)-6-methyl-N^1-(1-methylcyclopropyl)-5,6-dihydroimidazo[1,5-α]pyrazine-1,7(8H)-dicarboxamide] | 93 nM | 98% | > 100000 nM | – | – | – | – | – | – | – |
| Cc1cc(NC(=O)N2Cc3c(C(=O)N[C@H](C)C(F)(F)F)ncn3C[C@@H]2C)ccc1F [Example 58, (S)—N^7-(4-Fluoro-3-methylphenyl)-6-methyl-N^1-((R)-1,1,1-trifluoropropan-2-yl)-5,6-dihydroimidazo[1,5-α]pyrazine-1,7(8H)-dicarboxamide] | 15 nM | 100% | > 100000 nM | – | – | – | – | – | – | – |
